Consider 24 compounds from EP4755881A1 (Wuhan Createrna Science and Technology Co., Ltd., priority 2023, dated 2025).

A word on the half-life: it is how long it takes for the measured level to halve. A word on the AUC(0-t): it is exposure summed from dosing to a finite time, without extrapolation to infinity. A low value points to less exposure. In general, Cmax refers to the maximum level reached in the sampled fluid or tissue. The IC50 is the point on the concentration scale where inhibition reaches its midpoint.

Data set [1] is described as follows: Pharmacokinetic study in rats (oral gavage and tail vein injection, plasma LC-MS/MS). The format is in vivo. Conditions: for half-life: SD. The method, then:
Male SPF-grade SD rats (Beijing Vital River Laboratory Animal Technology Co., Ltd.) with a body weight range of 200 to 250 g were used. After acclimatization, the rats were administered a clear solution of the compound of the present disclosure via oral gavage (Po, fasted overnight before administration with free access to water, food returned 4 hours after administration) and tail vein injection (Iv, free access to food and water throughout the administration). Blood samples were collected from the orbital venous plexus/jugular vein of rats at specified time points after administration (blood collection time points for the PO group: 0.167, 0.5, 1, 2, 4, 6, 8, and 24 h; for the IV group: 0.033, 0.167, 1, 2, 4, 6, 8, and 24 h). The concentration of compounds in plasma was detected by LC-MS/MS (AB SCIEX Qtrap4500). Data were analyzed using WinNonlin (version 5.2.1 Pharsight, Mountain View, CA) with a non-compartmental model to obtain PK parameters (including Cmax, C0, Tmax, AUClast, AUCinf, T1/2, etc.).
Table 3: Results of in vivo pharmacokinetic studies of compounds of the present disclosure in rats
The vehicle for the Po group compound was 5% DMSO + 5% ethanol + 60% PEG400 + 30% normal saline; the vehicle for the Iv group compound was 10% ethanol + 20% pure water + 70% PEG400 solution.

The target in data set [2] is hLPAR1 (human lysophosphatidic acid receptor 1, Accession No.: NM_001401.4) (Homo sapiens, UniProt Q92633). Kind of data set: cell-based. Conditions: FLIPR method, CHO-K1 cells overexpressing hLPAR1. As to the method:
The antagonist properties of the compounds in the present disclosure were determined using the FLIPR (Fluorometric Imaging Plate Reader) method in CHO-K1 cells (Chinese Hamster Ovary cells K1, ATCC) overexpressing hLPAR1 (human lysophosphatidic acid receptor 1, Accession No.: NM_001401.4).
CHO-K1 cells stably expressing hLPAR1 were placed in a cell culture incubator at 37°C with 5% CO2 and cultured in F-12 medium containing 10% FBS (fetal bovine serum, Gibco, 10099-141), 1% penicillin-streptomycin (Gibco, 15140-122), and 0.4 mg/mL Hygromycin B (Gibco, 10687010). 18-24 hours before the FLIPR experiment, the cells were seeded into a 96-well plate at a density of 250,000 cells/mL (25,000 cells/well) and incubated overnight in the cell culture incubator. On the day of the experiment, the medium was removed, and the cells were washed with FLIPR buffer (2.5 mM probenecid (Thermo, P36400), 1.3 mM CaCl2, 3.3 mM Na2CO3, 1 mM MgSO4, 20 mM HEPES (Invitrogen, 15630080), 1× HBSS (Invitrogen, 14065056), 0.1% BSA (BioSharp, 70080030)). 75 µL of […] Fluo-4 AM fluorescent dye (Thermo, F14202) was added to each well and incubated for 1.0 hour at 37°C for dye loading. The 96-well plate was then washed once with buffer, and 50 µL of buffer containing the test compound or vehicle was added to each well, followed by incubation at room temperature for 30 min. The cell plate was then placed into the FLIPR for baseline fluorescence measurement (excitation wavelength at 485 nm, emission wavelength at 525 to 535 nm). Subsequently, 50 µL/well of agonist (final concentration 1 µM oleoyl-L-α-lysophosphatidic acid sodium salt (Sigma, L7260)) or vehicle (ultrapure water) was added, and fluorescence values were measured at 1-second intervals for 2 min. Finally, the output fluorescence counts were analyzed using GraphPad Prism 9.0 software log(inhibitor) vs. response--Variable slope (four parameters) equation to calculate IC50 values.
Table 1: Inhibitory activity data of compounds against LPAR1

Where [3] appears, read: male, rat, SD rats, Iv, 1 mg/kg.
[4] abbreviates: male, rat, SD rats, Iv, 1 mg/kg, read-out: Cmax.
[5] abbreviates: male, rat, SD rats, Po, 1 mg/kg.
[6] abbreviates: male, rat, SD rats, Po, 1 mg/kg, read-out: Cmax.
Setting [7] is: Table 1, read-out: LPAR1 inhibitory activity IC50.
The mark [8] stands for this setting: LPAR1 inhibitory activity IC50, Table 1.

Where two headings read alike, the source gives them in different places.

hLPAR1 (human lysophosphatidic acid receptor 1, Accession No.: NM_001401.4), sequence (Q92633 whole entry): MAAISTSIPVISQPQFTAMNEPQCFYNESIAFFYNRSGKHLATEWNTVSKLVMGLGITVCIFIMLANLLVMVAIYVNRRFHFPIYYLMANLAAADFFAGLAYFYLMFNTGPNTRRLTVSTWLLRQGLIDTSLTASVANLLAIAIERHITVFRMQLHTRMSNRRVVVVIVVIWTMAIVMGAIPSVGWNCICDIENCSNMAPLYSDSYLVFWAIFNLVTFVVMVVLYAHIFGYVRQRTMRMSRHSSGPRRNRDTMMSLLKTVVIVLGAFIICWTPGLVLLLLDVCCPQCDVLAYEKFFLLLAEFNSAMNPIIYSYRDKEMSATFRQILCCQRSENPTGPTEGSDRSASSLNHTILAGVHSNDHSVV

As for `CCC(F)(F)[C@@H](C)OC(=O)Nc1c(-c2ccc(C#C[C@@H]3CC[C@H]3C(=O)O)c(C)n2)nnn1C` (mixture of isomers) [212-B, trans-2-((6-(5-(((((R)-3,3-difluoropentan-2-yl)oxy)carbonyl)amino)-1-methyl-1H-1,2,3-triazol-4-yl)-2-methylpyridin-3-yl)ethynyl)cyclobutane-1-carboxylic acid], the half-life in data set [1] (male, rat, iv, 1 mg/kg) was 7.43 h; in data set [1] (male, rat, po, 1 mg/kg), 7.96 h. Also, the exposure AUC(0-t) in data set [1] (setting [3]) and in data set [1] (setting [5]) was 5000 to 10000 ng·h/mL throughout. For the same compound, the Cmax in data set [1] (setting [4]) and in data set [1] (setting [6]) was 800 to 5000 ng/mL in each case. Moreover, the IC50 in data set [2] (setting [7]) worked out at 0.0259 µM.
Consider `Cc1nc(-c2nnn(C)c2NC(=O)O[C@H](C)CC(C)(F)F)ccc1C#C[C@@H]1CC[C@H]1C(=O)O` (mixture of isomers) [213-B, trans-2-((6-(5-(((((R)-4,4-difluoropentan-2-yl)oxy)carbonyl)amino)-1-methyl-1H-1,2,3-triazol-4-yl)-2-methylpyridin-3-yl)ethynyl)cyclobutane-1-carboxylic acid], for which, in data set [1] (SD rats, Iv, 1 mg/kg), the AUClast entry is reported as “*** (5000 ng/mL*hr ≤ AUClast < 10000 ng/mL*hr)”, the Cmax entry is “** (800 ng/mL ≤ Cmax < 5000 ng/mL)” and the T1/2 was 8.67 h. Moreover, in data set [1] (male, rat, po, 3 mg/kg), the half-life was 9.6 h. In addition, in data set [1] (male, rat, SD rats, Po, 3 mg/kg), the AUC(0-t) was 10000 to 20000 ng·h/mL. In data set [1] (male, rat, SD rats, Po, 3 mg/kg, read-out: Cmax), the Cmax fell in the range of 800 to 5000 ng/mL. In data set [2] (setting [7]), the IC50 was 0.0368 µM.
Consider `CCC(F)(F)[C@@H](C)OC(=O)Nc1c(-c2ccc(C#C[C@@H]3CCC[C@H]3C(=O)O)c(C)n2)nnn1C` (mixture of isomers) [219-B, trans-2-((6-(5-(((((R)-3,3-difluoropentan-2-yl)oxy)carbonyl)amino)-1-methyl-1H-1,2,3-triazol-4-yl)-2-methylpyridin-3-yl)ethynyl)cyclopentane-1-carboxylic acid], for which the half-life in data set [1] (male, rat, iv, 1 mg/kg) is 3.89 h; in data set [1] (male, rat, po, 1 mg/kg) it was 4.24 h. The AUC(0-t) in data set [1] (setting [3]) and in data set [1] (setting [5]) was 5000 to 10000 ng·h/mL each time. In addition, the Cmax in data set [1] (setting [4]) and in data set [1] (setting [6]) was 800 to 5000 ng/mL throughout. In addition, the IC50 in data set [2] (setting [7]) amounted to 0.0114 µM.
In the case of `Cc1nc(-c2nnn(C)c2NC(=O)O[C@H](C)CC(C)(C)F)ccc1C#C[C@@H]1CCC[C@H]1C(=O)O` (mixture of isomers) [244-B, trans-2-((6-(5-(((((R)-4-fluoro-4-methylpentan-2-yl)oxy)carbonyl)amino)-1-methyl-1H-1,2,3-triazol-4-yl)-2-methylpyridin-3-yl)ethynyl)cyclopentane-1-carboxylic acid], the half-life in data set [1] (male, rat, iv, 1 mg/kg) is 5.05 h; in data set [1] (male, rat, po, 1 mg/kg) it was 4.07 h. Also, the AUC(0-t) in data set [1] (setting [3]) and in data set [1] (setting [5]) was 5000 to 10000 ng·h/mL each time. Also, the maximum concentration (Cmax) in data set [1] (setting [4]) and in data set [1] (setting [6]) was 800 to 5000 ng/mL in each case. Moreover, the IC50 in data set [2] (setting [7]) is 0.0192 µM.
Consider `Cc1nc(-c2nnn(C)c2NC(=O)OC(C)c2cc(F)cnc2Cl)ccc1C#CC1(CC(=O)O)CC1` (single isomer, unassigned) [023-A, 2-(1-((6-(5-(((1-(2-chloro-5-fluoropyridin-3-yl)ethoxy)carbonyl)amino)-1-methyl-1H-1,2,3-triazol-4-yl)-2-methylpyridin-3-yl)ethynyl)cyclopropyl)acetic acid], for which the half-life in data set [1] (male, rat, iv, 1 mg/kg) was 7.5 h. In data set [1] (setting [3]), this compound displayed an AUC(0-t) of 3000 to 5000 ng·h/mL. Further, the Cmax in data set [1] (setting [4]) fell in the range of 5000 to 8000 ng/mL. In data set [2] (setting [7]), the IC50 is 0.0372 µM.
Regarding `Cc1nc(-c2nnn(C)c2COC(=O)N(C)C(C)C2CCC2)ccc1C#CC1(CC(=O)O)CC1` (stereo not drawn) [compound 211, 2-(1-((6-(5-((((1-cyclobutylethyl)(methyl)carbamoyl)oxy)methyl)-1-methyl-1H-1,2,3-triazol-4-yl)-2-methylpyridin-3-yl)ethynyl)cyclopropyl)acetic acid], in data set [2] (setting [7]), the IC50 stood at 0.0138 µM.
Take `CCCc1ccnc(OCc2c(-c3ccc(C#CC4(CC(=O)O)CC4)c(C)n3)nnn2C)n1` [compound 217, 2-(1-((2-methyl-6-(1-methyl-5-(((4-propylpyrimidin-2-yl)oxy)methyl)-1H-1,2,3-triazol-4-yl)pyridin-3-yl)ethynyl)cyclopropyl)acetic acid]: in data set [2] (setting [7]), the IC50 came to 0.0266 µM.
Take `CN(CCCCF)C(=O)OCc1c(-c2ccc(C#CC3(CC(=O)O)CC3)c(C3CC3)n2)nnn1C` [compound 218, 2-(1-((2-cyclopropyl-6-(5-((((4-fluorobutyl)(methyl)carbamoyl)oxy)methyl)-1-methyl-1H-1,2,3-triazol-4-yl)pyridin-3-yl)ethynyl)cyclopropyl)acetic acid]: the IC50 in data set [2] (setting [7]) worked out at 0.0902 µM.
Turning to `Cc1nc(-c2nnn(C)c2NC(=O)O[C@H](C)CC(C)C)ccc1C#CC1(CC(=O)O)CC1` [compound 220], the IC50 in data set [2] (setting [8]) came to 0.0155 µM.
For the compound `Cc1nc(-c2nnn(C)c2NC(=O)O[C@H](C)c2ccccc2)ccc1C#C[C@@H]1CC(F)(F)C[C@H]1C(=O)O` [compound 226], the IC50 in data set [2] (setting [7]) was determined as 0.0004 µM.
The same measure, in the same setting: for `CCc1nc(-c2nnn(C)c2COC(=O)N(C)CCCCF)ccc1C#CC1(CC(=O)O)CC1` [compound 230] the value was 0.0599 µM; for `Cc1nc(-c2nnn(C)c2NC(=O)O[C@H](C)CC(C)(F)F)ccc1C#C[C@@H]1CC(F)(F)C[C@H]1C(=O)O` [compound 247], 0.0102 µM.
Still for that read-out and setting: for `CCC(F)(F)C[C@@H](C)OC(=O)Nc1c(-c2ccc(C#CC3(CC(=O)O)CC3)c(C)n2)nnn1C` [compound 264] the value was 0.0473 µM; for `Cc1nc(-c2nnn(C)c2NC(=O)O[C@H](C)CC(C)(C)F)ccc1C#C[C@@H]1CC(F)(F)C[C@H]1C(=O)O` [compound 273], 0.0149 µM.
`Cc1nc(-c2nnn(C)c2NC(=O)O[C@H](C)CC2CC2)ccc1C#CC1(CC(=O)O)CC1` [compound 302]: the IC50 in data set [2] (setting [8]) amounted to 0.0247 µM.
`Cc1nc(-c2nnn(C)c2NC(=O)O[C@H](C)C(F)(F)C(C)C)ccc1C#C[C@@H]1CC[C@H]1C(=O)O` [compound 307]: the IC50 in data set [2] (setting [7]) was 0.151 µM.
In data set [2] (setting [8]), `Cc1nc(-c2nnn(C)c2NC(=O)O[C@H](C)C(C)C)ccc1C#CC1(CC(=O)O)CC1` [compound 310] yielded an IC50 of 0.114 µM.
For the compound `Cc1nc(-c2nnn(C)c2NC(=O)OC(C)C(C)(C)C)ccc1C#CC1(CC(=O)O)CC1` (stereo not drawn) [compound 319], inhibition in data set [2] (setting [8]) was half-maximal at 0.124 µM (IC50).
The same measure, in the same setting: the figure for `CCC[C@@H](C)OC(=O)Nc1c(-c2ccc(C#CC3(CC(=O)O)CCC3)c(C)n2)nnn1C` [compound 325] is 0.0403 µM.
For `CCC[C@@H](C)OC(=O)Nc1c(C)noc1-c1ccc(C#C[C@@H]2CC[C@H]2C(=O)O)c(C)n1` [compound 339], the IC50 in data set [2] (setting [7]) was determined as 0.0026 µM.
As to `Cc1nc(-c2onc(C)c2NC(=O)O[C@H](C)CC(C)(F)F)ccc1C#C[C@@H]1CCC[C@H]1C(=O)O` [compound 343], in data set [2] (setting [7]), the IC50 amounted to 0.0057 µM.
For the compound `Cc1noc(-c2ccc(C#C[C@@H]3CCC[C@H]3C(=O)O)cn2)c1NC(=O)O[C@H](C)CC(C)(F)F` [compound 344], the IC50 in data set [2] (setting [7]) was 0.104 µM.
With `CCOCc1ccnc(NCc2c(-c3ccc(C#CC4(CC(=O)O)CC4)c(C)n3)nnn2C)n1` [compound 364], the IC50 in data set [2] (setting [7]) came out at 0.203 µM.
Still for that read-out and setting: for `Cc1noc(-c2ccc(C#CC3(CNS(=O)(=O)O)CC3)c(F)c2)c1NC(=O)O[C@H](C)c1ccccc1Cl` [compound 460] the value was 0.0118 µM.
